# Source: US20200384079A1, “Compositions of Fibroblast Growth Factor LIgands and Methods of Treating Patients Undergoing Ischemia-Reperfusion Therapy” (University of Cincinnati, priority 2017, published 2020)
# Entries after “also recorded” stand apart in the source; their conditions may differ. Like-named read-outs stand apart in the source and are kept apart here.
# B1: FGF1^ΔTS: thermally stable mutant of FGF1 containing Q55P, S62I, and H108G FGF1-stabilizing mutations (protein, UniProt P05230 16-155, looked up, variant Q55P S62I H108G)
# Fibroblast growth factor 1: FNLPPGNYKKPKLLYCSNGGHFLRILPDGTVDGTRDRSDPHIQLQLIAESVGEVYIKSTETGQYLAMDTDGLLYGSQTPNEECLFLERLEENGYNTYISKKHAEKNWFVGLKKNGSCKRGPRTHYGQKAILFLPLPVSSD
# Assays:
# [1] = target: FGFR3c ectodomain (extracellular ligand binding domain of FGFR3c) (UniProt P22607); test: ITC; FGF1 injected into FGFR3c ectodomain in the cell
# [2] = system: in vivo rat model of myocardial infarction; test: In vivo rat ischemia-reperfusion model, infarct size (TTC); design: species or system Sprague Dawley rats; settings: for effect on infarct size (in words): given at reperfusion, no heparin co-therapy; for reduction in infarct size compared to saline/vehicle control: given i.v. at reperfusion alone (FGF 10 μg/kg; heparin 12 U/kg/hr); for effect on infarct size / cardioprotection (in words): FGF given at reperfusion with heparin co-therapy
# Procedure: CVR-2016-799R1 signaling and the other two sets were to evaluate the pharmacokinetic properties of native FGF1 and modified FGF1 (FGF1^ΔHBS). The first set of experiments was for the ischemia/reperfusion study in which animals were divided into six groups as follows: (1) saline group: saline treatment given intravenously for 10 minutes immediately upon reperfusion, (2) heparin group: heparin, 60 U/kg intravenous (i.v.) bolus, given immediately at reperfusion+12 U/kg/hr i.v. infusion for 120 minutes of reperfusion, (3) FGF1 group: FGF1, 10 μg/kg i.v. infusion, given for 10 minutes immediately at reperfusion, (4) FGF1+heparin: heparin, 60 U/kg bolus, given immediately upon reperfusion followed by FGF1, 10 μg/kg i.v. infusion, given for 10 minutes and 12 U/kg/hr i.v. infusion given for 110 minutes of reperfusion, (5) modified FGF1 (FGF1^ΔHBS) group: FGF1^ΔHBS, 10 μg/kg i.v. infusion, given for 10 minutes, or (6) FGF1^ΔHBS+heparin: heparin, 60 U/kg bolus, given immediately at reperfusion followed by FGF1^ΔHBS, 10 μg/kg i.v. infusion, given for 10 minutes and 12 U/kg/hr i.v. infusion for 110 minutes of reperfusion. All rats were subjected to 30 minutes of regional ischemia and 120 minutes of reperfusion. Drugs were administered at the onset of reperfusion via the jugular vein (FIG. 2A). […] A total of ninety-six rats was completed for the I/R study. Sample size for each group ranged from 9-16 depending on the power analysis. A total of thirty-five rats were excluded from the study based on the lack of cyanosis of the heart or typical elevation of the ST segment in the electrocardiogram during ischemia, and death from malignant arrhythmia. For the biodistribution or FGF1 signaling study, rats were randomly divided into six groups as described above (FIG. 2B). Following drug treatment (immediately following 15 minutes of treatment or 105 minutes post-treatment at the point which mimics the length of time of reperfusion), solid organs and blood (see sections “Tissue collection for exogenous FGF1 biodistribution” and “Cardiac preparation to detect the activation of FGF1 downstream molecules”) were collected. A total of 33 rats were used for biodistribution and FGF1 signaling studies, and 3 rats were excluded due to anesthetic overdose. Also, a total of 8 plasma samples were excluded because of hemolysis. For elimination half-life of native FGF1 and FGF1^ΔHBS, 12 rats were randomly divided into two groups and treated intraperitoneally with either FGF1 form as described in the section “Pharmacokinetic evaluation of exogenous FGF1 or FGF1^ΔHBS ”.
# The in vivo I/R model was established by ligating and loosening the left anterior CVR-2016-799R1 descending artery (LAD) previously described by our laboratory. In brief, rats were anesthetized with thiobutabarbital sodium salt hydrate, Inactin® hydrate (100 mg/kg, i.p., Sigma-Aldrich), and intubated and artificially ventilated via a rodent respirator (respiratory rate: 75 strokes/minute; tidal volume: 3 mL; Model 683, Harvard, USA). The heart was exposed through a left thoracotomy and pericardiotomy, and a 6-0 silk suture was placed around the left anterior descending (LAD) coronary artery. After equilibration for 15 minutes, hearts were subjected to 30 minutes of ischemia by ligating the LAD via a snare occluder and reperfusion occurred for 120 minute via loosening the snare occluder. The appearance of cyanosis of the heart and significant ST-segment elevation in the electrocardiogram were used to verify successful ligation.
# At the end of the ischemia-reperfusion injury study, the LAD was re-occluded with the suture used previously for the establishment of ischemia. 5% Evans blue dye solution was given via the jugular vein to define the area-at-risk (AAR). Then, the heart was arrested in diastole with 1 mL of 15% potassium chloride, and the animal was euthanized with an anesthetic overdose followed by a bilateral pneumothorax for removal of the heart. […]
# [3] = target: FGFR3c ectodomain (extracellular ligand binding domain of FGFR3c) (UniProt P22607); test: ITC; FGF1^ΔHBS injected into FGFR3c ectodomain in the cell
# [4] = Blood clotting time (tail nick); assay type: in vivo, rat; settings: for Clotting time: 15 mins post treatment, single agent
# Procedure: In sets of experiments, blood clotting time was detected at baseline and 15 minutes after drug treatment. In brief, a nick 1-2 mm depth was made at 5 cm and 3 cm of the proximal tail for baseline and post-drug blood clotting time, respectively; the tail nick was blotted with 4×4 gauze every 15 seconds until bleeding totally stopped, and blood clotting time was recorded from the onset of bleeding until it stopped.
# Heparan sulfate proteoglycans or heparin regulates the bioavailability of FGFs. In order to develop a “cardioprotective” FGF as a therapeutic against ischemic heart disease, it was necessary to elucidate the efficacy of these cardiac FGFs in the presence of heparin treatment. Therefore, native rhFGFs (FGF 1, 2, 4, or 5) or vehicle are infused intravenously (at dose indicated above) in conjunction with unfractionated (12 units/kg/hr, i.v.) or low molecular weight heparin (enoxaparin 1 mg·kg, s.c.) during the first 15 minutes of reperfusion (FIG. 12A), and post-ischemic recovery of cardiac function and the degree of myocardial infarction is assessed. […] Unfractionated or low molecular weight heparin is administered alone during early reperfusion to elucidate the cardioprotective effects of heparins against IR injury. Whether FGF administration alters heparin activity is evaluated. To assess this potential interaction, activated clotting time (ACT) is assessed in vehicle-treated or FGF-treated groups in the absence or presence of heparin co-administration. Baseline and 15 minute post-drug treatment ACT is determined. It has been established that a heparin response occurs within 1 minute after an intravenous dose in humans and that no more time is required to achieve a predicted ACT.
# [5] = system: in vivo rat model of myocardial infarction; settings: rat; for post-ischemic cardiac function (in words): given at reperfusion, no heparin co-therapy
# ERK1/2 = ERK1/2 activation (phosphorylation) in left ventricle, immunoblot; assay type: in vivo, rat; settings: immediately post-treatment, no FGF+heparin co-treatment
# Procedure: Hearts from rats treated with saline, native FGF1 or FGF1^ΔHBS in the presence or absence of heparin were collected immediately after administration and at 120 minutes post-treatment for evaluation of downstream signaling. One-half of each snap-frozen heart was powdered and homogenized in protein extraction buffer as previously described by our laboratory. For FGFR1, 150 μg of total protein were loaded onto a 8% SDS-PAGE gel, for ERK1/2 activation, 20 μg of whole cell protein homogenate was loaded onto a 15% SDS-PAGE gel, and for PKCα and PKCδ, […] of whole cell protein homogenate was loaded onto a 10% SDS-PAGE gel and then transferred to nitrocellulose membrane. 0.1% Ponceau S in 5% acetic acid was used to examine the transfer efficiency and loading equality as described previously 43. Membranes were blocked with 5% dry milk and then incubated with primary antibody against phospho-FGFR1 (Y-654, 1:500, Cell Signaling), phospho-ERK1/2 (1:1000, Cell Signaling) or phospho-PKCα (1:500, Santa Cruz) or phospho-PKCδ (1:500, Santa Cruz) followed by incubation with HRP-conjugated secondary goat anti-rabbit antibody (1:3000, Santa Cruz Biotechnology). Membranes were stripped and reprobed with antibodies against total FGFR1 (1:500, Cell Signaling), total ERK (1:1000, BD Transduction Labs) or total PKCα (1:500, Santa Cruz) or PKCδ (1:500, Santa Cruz). Bound antibodies were visualized by ECL system. Activation is indicated as a ratio of phosphorylated protein/total protein. β-actin (1:1000, Cell Signaling) was also used as a loading control.
# Construction of his-tagged native and heparin-binding modified rhFGFs as well as their expression and purification is performed as previously described using his-tagged expression vectors and nickel-nitrilotriacetic acid resin columns. […] His-tagged FGFs are detected in solid organs by ELISA (FIG. 14) both for FGF and histidine (data not shown), and immunoprecipitation (IP) followed by immunoblot and in plasma by ELISA as described previously. His-tags are widely used because they are small and rarely interfere with function, activity, or structure of target proteins. […] There is no observed difference in total ERK or FGFR1 expression between the treatment groups.
# [6] = rat, i.v.
# wildtype mouse hearts = test: Ex vivo model, low-flow ischemia and reperfusion; settings: treatment at reperfusion, mouse hearts
# Excerpt: FIGS. 12A-12B. […] Left bar is vehicle-treated and right bar is FGF2-treated wildtype mouse hearts.
# trypsin = test: Susceptibility to proteolytic degradation by trypsin (fluorescence emission); assay type: in vitro ADME
# Procedure: Ligand bioavailability (i.e., pharmacokinetic mechanism) can be a significant pharmacological limitation for therapeutic applicability. […] Susceptibility to protease action of FGF1^ΔTS was determined by monitoring changes in fluorescence emission during degradation by trypsin, FGF1^ΔTS (20-fold increase) and FGF2 (7-fold increase) were more resistant to proteolytic degradation than the native FGF1. It remained to be elucidated as to whether these pharmacokinetic mechanisms I.e., bioavailability and/or half-life) were enhanced in vivo as well. Therefore, detection of the bioavailability and half-life of native and thermally stable mutated ligands (FGF^ΔTS) are carried out as follows: […]
# FGF receptors = settings: published data; cited from earlier work
# [7] = rat, 30 min ischemia/120 min reperfusion, given i.v. at reperfusion alone (FGF 10 μg/kg; heparin 60 U/kg bolus + 12 U/kg/hr)
molecule,measurement,setting,value
native FGF1 (recombinant human fibroblast growth factor 1) (from UniProt P05230 16-155) (ligand),Kd,[1],704 nM
"bisindolylmaleimide [GF109203X, reference compound]",effect of PKC inhibitor on FGF2-induced cardioprotection (infarct size),"[2]; rat, 1 mg/kg i.v., with FGF2, 1 mg/kg",abrogates the FGF2-induced cardioprotective effects of reduced myocardial infarct size; also recorded: abolished FGF2-induced cardioprotection
FGF1^ΔHBS (FGF1 carrying the K127D/K128Q/K133V triple mutation in its HS-binding site) (from UniProt P05230 1-155) (ligand),Kd,[3],432 nM
Heparin sodium [reference compound],Clotting time,[4],15 mins post-heparin treatment: 737 +/− 127 sec (n = 4)
same,blood clotting time post-treatment (in words),[4]; baseline vs 15 minutes after drug treatment,significantly longer post-treatment than at baseline
same,post-ischemic cardiac function (in words),[5],no significant difference in post-ischemic contractility between the saline and heparin group
same,ERK1/2 activation (phosphorylation) in left ventricle (in words),ERK1/2,not different than saline treatment
same,"infarct size (% infarct, percentage of area-at-risk)",[2]; [7],46%
same,effect on infarct size (in words),[2]; rat,lowered infarct size but not to the degree of FGF2 treatment; also recorded: significantly reduced infarct size compared to saline
same,effect on infarct size (in words),"[2]; rat, listed as Heparin","reduced infarct size somewhat, but not to the degree of FGF2 treatment"
same,reduction in infarct size compared to saline/vehicle control,[2]; rat,31%
same,tissue and plasma FGF distribution (in words),[6]; no FGF+heparin co-treatment,no difference in saline or heparin treatment with regard to FGF1 levels
FGF2: native recombinant human fibroblast growth factor 2,cardioprotection in ex vivo model (in words),wildtype mouse hearts,protects the heart from post-ischemic cardiac dysfunction and myocardial infarction
same,Clotting time,[4],15 mins post rhFGF2 treatment: 192 +/− 120 sec (n = 5)
same,"recovery of left ventricular (LV) developed pressure, % of baseline",[5]; FGF2 at reperfusion,68%
same,post-ischemic cardiac function (in words),[5],protects the heart from cardiac dysfunction; also recorded: improved relaxation compared to saline treatment
same,"infarct size (% infarct, percentage of area-at-risk)",[2]; as E6 but FGF 10 μg/kg i.v. in the presence of heparin co-administration,46%
same,"infarct size (% infarct, percentage of area-at-risk)",[2]; [7],26%
same,effect on infarct size / cardioprotection (in words),[2]; rat,significantly inhibited FGF2's reduction in infarct size
same,effect on infarct size / cardioprotection (in words),"[2]; rat, listed as rhFGF2",significantly inhibited rhFGF2-induced cardioprotection against MI
same,reduction in infarct size compared to saline/vehicle control,[2]; rat,57%
same,reduction in infarct size compared to saline/vehicle control,"[2]; rat, listed as RhFGF2",70%
same,tissue and plasma FGF distribution (in words),[6]; FGF with heparin co-administration,no longer targeted to the heart
same,tissue and plasma FGF distribution (in words),[6]; no FGF+heparin co-treatment,increased biodistribution heart (left ventricle)
same,tissue and plasma FGF distribution (in words),"[6]; no FGF+heparin co-treatment, listed as native FGF2",significantly targeted to the heart
same,increase in proteolytic resistance compared to native FGF1,trypsin,7 fold
B1,"activation of FGF receptors (ERK activation, cell proliferation) (in words)",FGF receptors,greater than the native FGF1
same,effect on infarct size (in words),[2]; rat,marked reduction in infarct size compared to native FGF1 at the same dose; also recorded: more efficacious in reducing infarct size compared to the same dose of native FGF1
same,increase in proteolytic resistance compared to native FGF1,trypsin,20 fold
